Measured values reported in ChEMBL document CHEMBL4177667, “Design, synthesis, and anticancer properties of isocorydine derivatives” (Bioorg Med Chem, 2017).
≈ marks a conversion by molar mass, not a printed value. Calls of active or inactive are those of the source. The rule behind the calls is not given here.

Legend:
HepG2 [1] = test: Synergistic downregulation of beta-catenin protein levels in human HepG2 cells at 10 ug/ml after 48 hrs in presence of sorafenib by Western blot analysis; type: functional, cell-based
HepG2 [2] = test: Synergistic growth inhibition against human HepG2 cells assessed as fold change in sorafenib IC50 at 10 ug/ml after 24 hrs by MTT assay; type: functional
HepG2 [3] = test: Synergistic upregulation of vementin protein levels in human HepG2 cells at 10 ug/ml after 48 hrs in presence of sorafenib by Western blot analysis; type: functional, cell-based
HepG2 [4] = test: Synergistic downregulation of Ki67 protein levels in human HepG2 cells at 10 ug/ml after 48 hrs in presence of sorafenib by Western blot analysis; type: functional, cell-based
HepG2 [5] = test: Synergistic induction of apoptosis in human HepG2 cells assessed as necrotic cells at 10 ug/ml after 24 hrs in presence of sorafenib by Annexin V-FITC/propidium iodide staining-based flow cytometric analysis (reference value: 0%); type: functional
H22 [6] = test: Antitumor activity against mouse H22 cells implanted in mouse assessed as tumor growth inhibition at 100 mg/kg, ig qd administered for 10 consecutive days measured after 24 hrs post last dose relative to control; type: functional; conditions: H22, po, read-out: TGI
MDA-MB-231 = test: Antiproliferative activity against human MDA-MB-231 cells after 48 hrs by MTT assay; type: functional, cell-based; conditions: MDA-MB-231, 48 h
HepG2 [7] = test: Induction of apoptosis in human HepG2 cells assessed as early apoptotic cells at 10 ug/ml after 24 hrs by Annexin V-FITC/propidium iodide staining-based flow cytometric analysis (reference value: 0.18%); type: functional
H22 [8] = test: Antitumor activity against mouse H22 cells implanted in mouse assessed as tumor growth inhibition at 150 mg/kg, ig qd administered for 10 consecutive days measured after 24 hrs post last dose relative to control; type: functional; conditions: H22, po, read-out: TGI
MGC-803 = test: Antiproliferative activity against human MGC803 cells after 48 hrs by MTT assay; type: functional, cell-based; conditions: MGC-803, 48 h
HeLa = test: cells; conditions: Homo sapiens, 48 h
HepG2 [9] = test: Induction of apoptosis in human HepG2 cells assessed as necrotic cells at 5 ug/ml after 24 hrs by Annexin V-FITC/propidium iodide staining-based flow cytometric analysis (reference value: 0%); type: functional
HepG2 [10] = test: Synergistic induction of apoptosis in human HepG2 cells assessed as viable cells at 10 ug/ml after 24 hrs in presence of sorafenib by Annexin V-FITC/propidium iodide staining-based flow cytometric analysis (reference value: 99.82%); type: functional; conditions: HepG2, 24 h, read-out: Activity
HepG2 [11] = test: Synergistic growth inhibition against human HepG2 cells assessed as fold change in sorafenib IC50 at 5 ug/ml after 24 hrs by MTT assay; type: functional
HepG2 [12] = test: cells; conditions: Homo sapiens, HepG2, 48 h
HepG2 [13] = test: Downregulation of C-myc protein levels in human HepG2 cells after 48 hrs by Western blot analysis; type: functional, cell-based
HepG2 [14] = test: Downregulation of beta-Catenin protein levels in human HepG2 cells after 48 hrs by Western blot analysis; type: functional, cell-based
HepG2 [15] = test: Downregulation of cyclin D1 protein levels in human HepG2 cells after 48 hrs by Western blot analysis; type: functional, cell-based
H22 [16] = test: Synergistic antitumor activity against mouse H22 cells implanted in mouse assessed as tumor growth inhibition at 50 mg/kg, ip or ig qd administered for 10 consecutive days measured after 24 hrs post last dose in presence of sorafenib relative to control; type: functional; conditions: read-out: TGI
HepG2 [17] = test: Synergistic downregulation of C-myc protein levels in human HepG2 cells at 10 ug/ml after 48 hrs in presence of sorafenib by Western blot analysis; type: functional, cell-based
H22 [18] = test: Antitumor activity against mouse H22 cells implanted in mouse assessed as tumor growth inhibition at 50 mg/kg, ig qd administered for 10 consecutive days measured after 24 hrs post last dose relative to control; type: functional; conditions: H22, po, read-out: TGI
HepG2 [19] = test: Upregulation of vimentin protein levels in human HepG2 cells at 5 to 20 ug/ml after 48 hrs by Western blot analysis; type: functional, cell-based
HepG2 [20] = test: Induction of apoptosis in human HepG2 cells assessed as early apoptotic cells at 5 ug/ml after 24 hrs by Annexin V-FITC/propidium iodide staining-based flow cytometric analysis (reference value: 0.18%); type: functional
HepG2 [21] = test: Induction of apoptosis in human HepG2 cells assessed as late apoptotic cells at 5 ug/ml after 24 hrs by Annexin V-FITC/propidium iodide staining-based flow cytometric analysis (reference value: 0%); type: functional
HepG2 [22] = test: Synergistic induction of apoptosis in human HepG2 cells assessed as late apoptotic cells at 10 ug/ml after 24 hrs in presence of sorafenib by Annexin V-FITC/propidium iodide staining-based flow cytometric analysis (reference value: 0%); type: functional
HepG2 [23] = test: Induction of apoptosis in human HepG2 cells assessed as late apoptotic cells at 10 ug/ml after 24 hrs by Annexin V-FITC/propidium iodide staining-based flow cytometric analysis (reference value: 0%); type: functional
HepG2 [24] = test: Cell cycle arrest in human HepG2 cells assessed as decrease in accumulation of cells at G0/G1 phase at 10 ug/ml after 48 hrs by propidium iodide staining-based flow cytometric analysis; type: functional
HepG2 [25] = test: Induction of apoptosis in human HepG2 cells assessed as viable cells at 10 ug/ml after 24 hrs by Annexin V-FITC/propidium iodide staining-based flow cytometric analysis (reference value: 99.82%); type: functional; conditions: HepG2, 24 h, read-out: Activity
H22 [26] = test: Synergistic antitumor activity against mouse H22 cells implanted in mouse assessed as tumor growth inhibition at 100 mg/kg, ip or ig qd administered for 10 consecutive days measured after 24 hrs post last dose in presence of sorafenib relative to control; type: functional; conditions: read-out: TGI
H22 [27] = test: Antitumor activity against mouse H22 cells implanted in mouse assessed as tumor growth inhibition at 150 mg/kg, ip qd administered for 10 consecutive days measured after 24 hrs post last dose relative to control; type: functional; conditions: read-out: TGI
SMMC-7721 = test: Antiproliferative activity against human SMMC7721 cells after 48 hrs by MTT assay; type: functional, cell-based; conditions: SMMC-7721, 48 h
HepG2 [28] = test: Synergistic downregulation of cyclin D1 protein levels in human HepG2 cells at 10 ug/ml after 48 hrs in presence of sorafenib by Western blot analysis; type: functional, cell-based
H22 [29] = test: Antitumor activity against mouse H22 cells implanted in mouse assessed as tumor growth inhibition at 100 mg/kg, ip qd administered for 10 consecutive days measured after 24 hrs post last dose relative to control; type: functional; conditions: read-out: TGI
HepG2 [30] = test: Induction of apoptosis in human HepG2 cells assessed as viable cells at 5 ug/ml after 24 hrs by Annexin V-FITC/propidium iodide staining-based flow cytometric analysis (reference value: 99.82%); type: functional; conditions: HepG2, 24 h, read-out: Activity
HepG2 [31] = test: Synergistic induction of apoptosis in human HepG2 cells assessed as early apoptotic cells at 10 ug/ml after 24 hrs in presence of sorafenib by Annexin V-FITC/propidium iodide staining-based flow cytometric analysis (reference value: 0.18%); type: functional
HepG2 [32] = test: cells; conditions: Homo sapiens, HepG2, 24 h
Description: Antiproliferative activity against human HepG2 cells after 24 hrs by MTT assay

H22 [33] = test: Antitumor activity against mouse H22 cells implanted in mouse assessed as tumor growth inhibition at 50 mg/kg, ip qd administered for 10 consecutive days measured after 24 hrs post last dose relative to control; type: functional; conditions: read-out: TGI
U-251 = test: Antiproliferative activity against human U251 cells after 48 hrs by MTT assay; type: functional, cell-based; conditions: U-251, 48 h
HepG2 [34] = test: Induction of apoptosis in human HepG2 cells assessed as necrotic cells at 10 ug/ml after 24 hrs by Annexin V-FITC/propidium iodide staining-based flow cytometric analysis (reference value: 0%); type: functional
HepG2 [35] = test: Downregulation of Ki67 protein levels in human HepG2 cells after 48 hrs by Western blot analysis; type: functional, cell-based
HepG2 [36] = test: Synergistic growth inhibition against human HepG2 cells assessed as fold change in sorafenib IC50 at 2.50 ug/ml after 24 hrs by MTT assay; type: functional
HepG2 [37] = test: Antiproliferative activity against human HepG2 cells after 72 hrs by MTT assay; type: functional, cell-based; conditions: HepG2, 72 h
HepG2 [38] = test: Cell cycle arrest in human HepG2 cells assessed as increase in accumulation of cells at G2/M phase at 10 ug/ml after 48 hrs by propidium iodide staining-based flow cytometric analysis; type: functional
HepG2 [39] = test: Synergistic cell cycle arrest in human HepG2 cells assessed as decrease in accumulation of cells at G0/G1 phase at 10 ug/ml after 48 hrs in presence of sorafenib by propidium iodide staining-based flow cytometric analysis; type: functional
H22 [40] = test: Synergistic antitumor activity against mouse H22 cells implanted in mouse assessed as tumor growth inhibition at 150 mg/kg, ip or ig qd administered for 10 consecutive days measured after 24 hrs post last dose in presence of sorafenib relative to control; type: functional; conditions: read-out: TGI

SMILES: COc1cc(NC(=O)Nc2ccc(Cl)c(C(F)(F)F)c2)c2c(c1O)-c1c(OC)c(OC)cc3c1[C@H](C2)N(C)CC3
- Activity (HepG2 [1]): Active
- fold change (FC) (HepG2 [2]): 2.04
- Activity (HepG2 [3]): inactive
- Activity (HepG2 [4]): Active
- Activity (HepG2 [5]): 0.06%
- inhibition in vivo at 100 mg/kg (H22 [6]): 48.2%
- IC50 (MDA-MB-231): 15.6 µg/mL (≈ 27 µM)
- Activity (HepG2 [7]): 3.11%
- inhibition in vivo at 150 mg/kg (H22 [8]): 53.4%
- IC50 (MGC-803): 16.6 µM
- IC50 (HeLa): 26.5 µM
- Activity (HepG2 [9]): 0.07%
- viability at 10 µg/mL (HepG2 [10]): 36.3%
- fold change (FC) (HepG2 [11]): 1.25
- IC50 (HepG2 [12]): 17.2 µM
- Activity (HepG2 [13]): Dose-dependent effect
- Activity (HepG2 [14]): Dose-dependent effect
- Activity (HepG2 [15]): Dose-dependent effect
- inhibition in vivo at 50 mg/kg (H22 [16]): 63.1%
- Activity (HepG2 [17]): Active
- inhibition in vivo at 50 mg/kg (H22 [18]): 40.1%
- Activity (HepG2 [19]): Active
- Activity (HepG2 [20]): 6.8%
- Activity (HepG2 [21]): 2.14%
- Activity (HepG2 [22]): 19.34%
- Activity (HepG2 [23]): 8.78%
- Activity (HepG2 [24]): Active
- viability at 10 µg/mL (HepG2 [25]): 88.1%
- inhibition in vivo at 100 mg/kg (H22 [26]): 65.1%
- inhibition in vivo at 150 mg/kg (H22 [27]): 50.8%
- IC50 (SMMC-7721): 18.6 µg/mL (≈ 32.2 µM)
- Activity (HepG2 [28]): Active
- inhibition in vivo at 100 mg/kg (H22 [29]): 46.3%
- viability at 5 µg/mL (HepG2 [30]): 91%
- Activity (HepG2 [31]): 44.33%
- IC50 (HepG2 [32]): 16.8 µg/mL (≈ 29.1 µM)
- inhibition in vivo at 50 mg/kg (H22 [33]): 40.3%
- IC50 (U-251): 10.1 µg/mL (≈ 17.5 µM)
- Activity (HepG2 [34]): 0.04%
- Activity (HepG2 [35]): Dose-dependent effect
- fold change (FC) (HepG2 [36]): 0.91
- IC50 (HepG2 [37]): 6.7 µg/mL (≈ 11.6 µM)
- Activity (HepG2 [38]): Active
- Activity (HepG2 [39]): Active
- inhibition in vivo at 150 mg/kg (H22 [40]): 70.6%
